Assay results taken from patent US12122816B2, “Long acting peptide tyrosine tyrosine (PYY) analogs and methods of use” (Intarcia Therapeutics, Inc., priority 2020, dated 2024).
Starred links: 1 amine or outer side, 2 acyl side, 3 side chain; linkers in the order of their positions; H or OH if unused. Residues, ends and D or L forms follow the SMILES beside them. Groups on a side chain read outwards from the residue. *: point of attachment. C20 diacid = O=C(O)CCCCCCCCCCCCCCCCCCC(=O)*; γGlu = O=C(O)[C@H](CCC(=O)[*:2])N[*:1]

Key:
human Y2 receptor = molecular target: T1, human Y2 receptor (Homo sapiens, UniProt P49146); experiment: NPY receptor functional assay (cAMP, HEK-CNG cells, ACTOne membrane potential dye); format: cell-based; settings: NPY2R pEC50, HEK-CNG cells; standard PYY(3-36); species (human or rat) not given
T1 sequence (P49146 1-381): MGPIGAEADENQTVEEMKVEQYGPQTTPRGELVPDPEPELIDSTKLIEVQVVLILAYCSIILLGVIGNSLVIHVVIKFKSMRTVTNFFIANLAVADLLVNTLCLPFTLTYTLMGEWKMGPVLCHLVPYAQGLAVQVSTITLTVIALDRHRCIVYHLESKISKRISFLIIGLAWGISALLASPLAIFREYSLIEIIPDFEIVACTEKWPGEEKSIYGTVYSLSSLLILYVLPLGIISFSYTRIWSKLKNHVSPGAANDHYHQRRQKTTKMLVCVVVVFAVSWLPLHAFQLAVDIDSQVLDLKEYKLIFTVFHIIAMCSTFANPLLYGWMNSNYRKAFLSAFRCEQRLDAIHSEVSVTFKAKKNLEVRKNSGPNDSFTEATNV
From the text: (§1) The NPY family of G-protein coupled receptors include Y1, Y2, Y4, and Y5 in humans and rats. […] Following agonist binding, the receptor-G protein complex activates a downstream intracellular signaling cascade which leads to inhibition of adenylate cyclase and a reduction in intracellular cAMP levels.
(§2) HEK-CNG cells stably expressing the human or rat Y1, Y2, Y4 or Y5 receptors (Codex Biosolutions) were used to characterize the functional potency of peptide agonists using the ActOne™ membrane potential dye kit (Codex Biosolutions). In addition to each NPY receptor, each cell line encodes a proprietary exogenous Cyclic Nucleotide-Gated (CNG) channel (Codex Biosolutions). The channel is activated by elevated intracellular levels of cAMP, resulting in ion flux and cell membrane depolarization which can be detected with a calcium sensitive dye or fluorescent membrane potential (MP) dye. Cells were carried in growth media containing 90% DMEM, 10% FBS, 250 mcg/mL G418 and 1 mcg/mL puromycin for no more than 15 passages.
(§3) Prior to testing, cells were counted and dispensed at 14,000 cells per well (Y1, Y4 and Y5) or 28,000 cells per well (Y2) into black 384 well Poly-D-Lysine plates at 20 mcL per well. Covered plates were then incubated at room temperature for 30 minutes followed by an overnight incubation at 37° C. in 5% C02. The following day, media was removed and wells were washed once with 40 mcL Dulbecco's phosphate buffered saline. […] Ten microliters of experimental peptide or peptide standard was added in triplicate to wells and incubated for 50 minutes at room temperature in the dark. Following this incubation step, plates were read again as before (final read).
(§4) NPY receptor activation, leading to a reduction in intracellular cAMP levels, is detected as a decrease in isoproteranol induced fluorescent signal. Peptide standard and experimental values were initially transformed in excel using the formula: final read/initial read. Transformed values were then normalized to receptor specific standard values (1×10−13 M minimum and 1×10−7 M maximum) using the formula: (test value−standard minavg)/(standard maxavg−standard minavg)*100. […] Normalized data was analyzed from triplicate tests and used to estimate the EC50 for each test peptide on each receptor. Data was fit in GraphPad Prism software (v8.2.1) using a 3-parameter logistic curve model: Y=Bottom+(Top−Bottom)/(1+10^((LogEC50−X))). EC50 values were converted to pEC50 values using the formula: pEC50=−Log(EC50).

human Y5 receptor = molecular target: T2, human Y5 receptor (Homo sapiens, UniProt Q15761); experiment: as above; format: cell-based; settings: NPY5R pEC50, HEK-CNG cells; standard NPY; species (human or rat) not given
T2 sequence (Q15761 1-445): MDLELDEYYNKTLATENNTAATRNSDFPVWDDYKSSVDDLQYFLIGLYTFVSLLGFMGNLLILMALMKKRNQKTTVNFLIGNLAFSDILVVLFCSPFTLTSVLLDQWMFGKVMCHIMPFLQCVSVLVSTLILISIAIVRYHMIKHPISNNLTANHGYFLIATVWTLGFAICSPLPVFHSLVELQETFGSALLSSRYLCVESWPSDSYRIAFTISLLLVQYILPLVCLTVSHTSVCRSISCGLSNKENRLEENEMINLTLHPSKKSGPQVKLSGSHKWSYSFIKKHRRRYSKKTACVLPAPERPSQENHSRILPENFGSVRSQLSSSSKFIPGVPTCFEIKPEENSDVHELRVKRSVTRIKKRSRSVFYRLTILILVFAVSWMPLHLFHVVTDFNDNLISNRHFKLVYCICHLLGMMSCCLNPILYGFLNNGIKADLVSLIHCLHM
From the text: as §1, §2, §3, §4

Compound	EC50 (human Y2 receptor) [nM]	EC50 (human Y5 receptor) [nM]
CC(C)C[C@H](NC(=O)[C@H](CC(=O)O)NC(=O)[C@H](CCCCN)NC(=O)[C@H](Cc1ccc(O)cc1)NC(=O)[C@H](Cc1ccc(O)cc1)NC(=O)[C@H](CCCNC(=N)N)NC(=O)[C@H](CC(N)=O)NC(=O)[C@H](Cc1c[nH]c2ccccc12)NC(=O)[C@H](CCC(=O)O)NC(=O)[C@H](CCCCN)NC(=O)[C@@H]1CCCN1C(=O)[C@H](CO)NC(=O)[C@H](C)NC(=O)[C@H](CC(=O)O)NC(=O)[C@H](CCC(=O)O)NC(=O)CNC(=O)[C@@H]1CCCN1C(=O)[C@H](CCCCNC(=O)CC[C@H](NC(=O)CC[C@H](NC(=O)CCCCCCCCCCCCCCCCCC(=O)O)C(=O)O)C(=O)O)NC(=O)[C@H](CCC(=O)O)NC(=O)[C@@H]1CCCN1C(=O)[C@H](CCCCN)NC(=O)[C@@H]1CCCN1)C(=O)N[C@@H](CCCNC(=N)N)C(=O)N[C@@H](Cc1c[nH]cn1)C(=O)N[C@@H](Cc1ccc(O)cc1)C(=O)N[C@@H](CC(C)C)C(=O)N[C@@H](CC(N)=O)C(=O)N[C@@H](Cc1c[nH]c2ccccc12)C(=O)N[C@@H](CC(C)C)C(=O)N[C@H](C(=O)N[C@@H](CCCNC(=N)N)C(=O)N[C@@H](CCC(N)=O)C(=O)N[C@@H](CCCNC(=N)N)C(=O)N[C@@H](Cc1ccccc1)C(N)=O)[C@@H](C)O [Compound A36]	0.0126	2
CC(C)C[C@H](NC(=O)[C@H](CC(=O)O)NC(=O)[C@H](CCCCN)NC(=O)[C@H](Cc1ccc(O)cc1)NC(=O)[C@H](Cc1ccc(O)cc1)NC(=O)[C@H](CCCNC(=N)N)NC(=O)[C@H](CC(N)=O)NC(=O)[C@H](Cc1c[nH]c2ccccc12)NC(=O)[C@H](CCC(=O)O)NC(=O)[C@H](CCCCN)NC(=O)[C@@H]1CCCN1C(=O)[C@H](CO)NC(=O)[C@H](C)NC(=O)[C@H](CC(=O)O)NC(=O)[C@H](CCCCN)NC(=O)CNC(=O)[C@@H]1CCCN1C(=O)[C@H](CCCCNC(=O)CC[C@H](NC(=O)CC[C@H](NC(=O)CCCCCCCCCCCCCCCCCCC(=O)O)C(=O)O)C(=O)O)NC(=O)[C@H](CCC(=O)O)NC(=O)[C@@H]1CCCN1C(=O)[C@H](CCCCN)NC(=O)[C@@H]1CCCN1)C(=O)N[C@@H](CCCNC(=N)N)C(=O)N[C@@H](Cc1c[nH]cn1)C(=O)N[C@@H](Cc1ccc(O)cc1)C(=O)N[C@@H](CC(C)C)C(=O)N[C@@H](CC(N)=O)C(=O)N[C@@H](Cc1c[nH]c2ccccc12)C(=O)N[C@@H](CC(C)C)C(=O)N[C@H](C(=O)N[C@@H](CCCNC(=N)N)C(=O)N[C@@H](CCC(N)=O)C(=O)N[C@@H](CCCNC(=N)N)C(=O)N[C@@H](Cc1ccccc1)C(N)=O)[C@@H](C)O [Compound A37] (H-PKPEK([γGlu-γGlu-C20 diacid])PGKDASPKEWNRYYKDLRHYLNWLTRQRF-NH2; N-terminus assumed)	0.0158	2.51
CC(C)C[C@H](NC(=O)[C@H](CC(=O)O)NC(=O)[C@H](CCCCN)NC(=O)[C@H](Cc1ccc(O)cc1)NC(=O)[C@H](Cc1ccc(O)cc1)NC(=O)[C@H](CCCNC(=N)N)NC(=O)[C@H](CC(N)=O)NC(=O)[C@H](Cc1c[nH]c2ccccc12)NC(=O)[C@H](CCC(=O)O)NC(=O)[C@H](CCCCNC(=O)CC[C@H](NC(=O)CC[C@H](NC(=O)CCCCCCCCCCCCCCCCCCC(=O)O)C(=O)O)C(=O)O)NC(=O)[C@@H]1CCCN1C(=O)[C@H](CO)NC(=O)[C@H](C)NC(=O)[C@H](CC(=O)O)NC(=O)[C@H](CCCCN)NC(=O)CNC(=O)[C@@H]1CCCN1C(=O)[C@H](CCCCN)NC(=O)[C@H](CCC(=O)O)NC(=O)[C@@H]1CCCN1C(=O)[C@H](CCCCN)NC(=O)[C@@H]1CCCN1)C(=O)N[C@@H](CCCNC(=N)N)C(=O)N[C@@H](Cc1c[nH]cn1)C(=O)N[C@@H](Cc1ccc(O)cc1)C(=O)N[C@@H](CC(C)C)C(=O)N[C@@H](CC(N)=O)C(=O)N[C@@H](Cc1c[nH]c2ccccc12)C(=O)N[C@@H](CC(C)C)C(=O)N[C@H](C(=O)N[C@@H](CCCNC(=N)N)C(=O)N[C@@H](CCC(N)=O)C(=O)N[C@@H](CCCNC(=N)N)C(=O)N[C@@H](Cc1ccccc1)C(N)=O)[C@@H](C)O [Compound A70] (H-PKPEKPGKDASPK([γGlu-γGlu-C20 diacid])EWNRYYKDLRHYLNWLTRQRF-NH2; N-terminus assumed)	0.0398	2
CC(C)C[C@H](NC(=O)[C@H](CC(=O)O)NC(=O)[C@H](CCCCN)NC(=O)[C@H](Cc1ccc(O)cc1)NC(=O)[C@H](Cc1ccc(O)cc1)NC(=O)[C@H](CCCNC(=N)N)NC(=O)[C@H](CC(N)=O)NC(=O)[C@H](Cc1c[nH]c2ccccc12)NC(=O)[C@H](CCC(=O)O)NC(=O)[C@H](CCCCN)NC(=O)[C@@H]1CCCN1C(=O)[C@H](CO)NC(=O)[C@H](C)NC(=O)[C@H](CC(=O)O)NC(=O)[C@H](CCCCN)NC(=O)CNC(=O)[C@@H]1CCCN1C(=O)[C@H](CCCCNC(=O)CC[C@H](NC(=O)CC[C@H](NC(=O)CCCCCCCCCCCCCCCCCCC(=O)O)C(=O)O)C(=O)O)NC(=O)[C@H](CCC(=O)O)NC(=O)[C@@H]1CCCN1C(=O)[C@H](CCCCN)NC(=O)[C@@H]1CCCN1)C(=O)N[C@@H](CCCNC(=N)N)C(=O)N[C@@H](Cc1c[nH]cn1)C(=O)N[C@@H](Cc1ccc(O)cc1)C(=O)N[C@@H](CC(C)C)C(=O)N[C@@H](CC(N)=O)C(=O)N[C@@H](Cc1c[nH]c2ccccc12)C(=O)N[C@@H](CC(C)C)C(=O)N[C@H](C(=O)N[C@@H](CCCNC(=N)N)C(=O)N[C@@H](CCC(N)=O)C(=O)N[C@@H](CCCNC(=N)N)C(=O)N[C@@H](Cc1ccccc1)C(N)=O)[C@@H](C)O [Compound A71] (H-PKPEK([γGlu-γGlu-C20 diacid])PGKDASPKEWNRYYKDLRHYLNWLTRQRF-NH2; N-terminus assumed)	0.02	1.58
CC(C)C[C@H](NC(=O)[C@H](CC(=O)O)NC(=O)[C@H](CCCCN)NC(=O)[C@H](Cc1ccc(O)cc1)NC(=O)[C@H](Cc1ccc(O)cc1)NC(=O)[C@H](CCCNC(=N)N)NC(=O)[C@H](CO)NC(=O)[C@H](Cc1c[nH]c2ccccc12)NC(=O)[C@H](CCC(=O)O)NC(=O)[C@H](CCC(=O)O)NC(=O)[C@@H]1CCCN1C(=O)[C@H](CO)NC(=O)[C@H](C)NC(=O)[C@H](CC(=O)O)NC(=O)[C@H](CCCCNC(=O)CC[C@H](NC(=O)CC[C@H](NC(=O)CCCCCCCCCCCCCCCCCCC(=O)O)C(=O)O)C(=O)O)NC(=O)CNC(=O)[C@@H]1CCCN1C(=O)[C@H](CCCCN)NC(=O)[C@H](CCC(=O)O)NC(=O)[C@@H]1CCCN1C(=O)[C@H](CCCCN)NC(=O)[C@@H]1CCCN1)C(=O)N[C@@H](CCCNC(=N)N)C(=O)N[C@@H](Cc1c[nH]cn1)C(=O)N[C@@H](Cc1ccc(O)cc1)C(=O)N[C@@H](CC(C)C)C(=O)N[C@@H](CC(N)=O)C(=O)N[C@@H](Cc1c[nH]c2ccccc12)C(=O)N[C@@H](CC(C)C)C(=O)N[C@H](C(=O)N[C@@H](CCCNC(=N)N)C(=O)N[C@@H](CCC(N)=O)C(=O)N[C@@H](CCCNC(=N)N)C(=O)N[C@@H](Cc1ccccc1)C(N)=O)[C@@H](C)O [Compound A75]		0.501
